Test results from patent US20230357253A1, “AGONISTS OF STIMULATOR OF INTERFERON GENES STING” (THE SCRIPPS RESEARCH INSTITUTE, priority 2020, published 2023).

Experiments:
THP-1 Lucia ISG cells = assay: ISRE-luciferase assay (ISG-LUC activation); assay type: cell-based; conditions: Homo sapiens, THP1-Lucia ISG, 24 hours, luciferase reporter
Summary of the method: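 THP-1 Lucia ISG cells at 5×10^5 cells/ml in 2% FBS medium were treated with test article or DMSO vehicle for 24 h. Secreted luciferase was read by luminescence and normalized to vehicle, reported as RLU.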

human STING protein = human STING protein (Homo sapiens (Human), UniProt Q86WV6); assay: WT STING binding assay (HTRF, competition with labeled 2′3′cGAMP); conditions: recombinant 6×His-tagged human STING, three hours at room temperature
human STING protein, sequence (Q86WV6 whole entry): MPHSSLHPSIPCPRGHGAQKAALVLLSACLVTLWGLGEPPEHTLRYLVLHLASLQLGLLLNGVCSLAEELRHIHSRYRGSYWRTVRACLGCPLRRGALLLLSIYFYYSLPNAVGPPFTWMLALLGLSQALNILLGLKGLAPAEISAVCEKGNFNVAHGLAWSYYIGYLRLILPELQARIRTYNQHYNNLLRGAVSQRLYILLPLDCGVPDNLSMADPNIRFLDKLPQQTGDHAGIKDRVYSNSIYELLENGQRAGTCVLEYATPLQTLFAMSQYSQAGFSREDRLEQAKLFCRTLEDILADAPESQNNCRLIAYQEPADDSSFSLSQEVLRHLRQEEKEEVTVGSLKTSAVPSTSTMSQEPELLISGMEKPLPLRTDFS
Experimental: WT STING binding assay (Cisbio, Catalog #64BDSTGPEH). […] Upon proximity of the two dyes, the excitation of the donor by the flash lamp on the PHERAstar FSX plate reader triggers a Fluorescence Resonance Energy Transfer (FRET) towards the acceptor, which in turn fluoresces at 665 nm. To assess the ability of the synthetic small molecule STING ligands to bind to human STING, a competitive assay format was applied. A 10-point titration of each of the synthetic ligands in 5 uL were transferred into a 384 well plate, followed by 20 uL of assay buffer containing the 6×His-tagged human STING protein and labeled 2′3′cGAMP ligand and incubated for three hours at room temperature. The raw values obtained from the PHERAstar were used to calculate the reported IC50 values (the signal is inversely proportional to the binding of the synthetic ligand) through curve fitting in Genedata. The percent inhibition was calculated based upon the maximal amount of binding by synthetic compound versus the maximum binding of unlabeled 2′3′ cGAMP which was used as a control in each assay.

EC50 (THP-1 Lucia ISG cells) [nM]	IC50 (human STING protein) [nM]	Structure (SMILES)
500 to 5000	100 to 1000	COc1cc(NC(=O)c2ccc3nnnn3n2)c(C(=O)O)cc1CCOc1cc(NC(=O)c2ccc(-n3ccnc3)nn2)c(C(=O)O)cc1F [Compound 103]
500 to 5000	10 to 100	O=C(Nc1cc(CCCc2ccc(NC(=O)c3ccc(-n4ccnc4)nn3)c(C(=O)O)c2)ccc1C(=O)O)c1ccc(-n2ccnc2)nn1 [Compound 55]
50 to 500	10 to 100	O=C(Nc1cc(CCCc2cc(NC(=O)c3ccc(-n4ccnc4)nn3)c(C(=O)O)cc2F)c(F)cc1C(=O)O)c1cccnn1 [Compound 111]
50 to 500	10 to 100	O=C(Nc1cc(CCOc2cc(NC(=O)c3ccc4nnnn4n3)c(C(=O)O)cc2Cl)ccc1C(=O)O)c1ccc(-n2ccnc2)nn1 [Compound 104]
50 to 500	100 to 1000	O=C(Nc1cc(CCOc2c(F)cc(C(=O)O)c(NC(=O)c3ccc(-n4ccnc4)nn3)c2F)c(F)cc1C(=O)O)c1ccc(-n2ccnc2)nn1 [Compound 123]
500 to 5000	10 to 100	O=C(Nc1cc(CCCc2cc(NC(=O)c3ccc4cnnn4n3)c(C(=O)O)cc2F)c(F)cc1C(=O)O)c1ccc(-n2ccnc2)nn1 [Compound 117]
> 5000	100 to 1000	COc1cc(C(=O)O)c(NC(=O)c2ccc3nnnn3n2)cc1CCCc1cnc(C(=O)O)c(NC(=O)c2ccc(-n3ccnc3)nn2)c1 [Compound 85]
500 to 5000	100 to 1000	COc1cc(C(=O)O)c(NC(=O)c2ccc3nnnn3n2)cc1OCCc1cc(NC(=O)c2ccc(-n3ccnc3)nn2)c(C(=O)O)cc1F [Compound 102]
50 to 500	10 to 100	O=C(Nc1cc(CCCc2cc(C(=O)O)c(NC(=O)c3ccc4nnnn4n3)cc2Cl)ccc1C(=O)O)c1ccc(-n2ccnc2)nn1 [Compound 93]
> 5000	100 to 1000	O=C(Nc1cc(OCCCCOc2ccc(C(=O)O)c(NC(=O)c3ccc4nnnn4n3)c2)ccc1C(=O)O)c1ccc(-n2ccnc2)nn1 [Compound 20]
500 to 5000	100 to 1000	O=C(Nc1cc(CCCc2ccc(C(=O)O)c(NC(=O)c3ccc4nnnn4n3)c2)c(F)cc1C(=O)O)c1ccc(-n2ccnc2)nn1 [Compound 75]
> 5000	100 to 1000	COc1cc(C(=O)O)c(NC(=O)c2ccc3nnnn3n2)cc1OCCc1ccc(C(=O)O)c(NC(=O)c2ccc(-n3ccnc3)nn2)c1 [Compound 91]
< 50	10 to 100	CCOC(=O)c1cc(F)c(CCCc2cc(NC(=O)c3ccc(-n4ccnc4)nn3)c(C(=O)O)cc2F)cc1NC(=O)c1ccc(-n2ccnc2)nn1 [Compound 173, 2-(6-(1H-imidazol-1-yl)pyridazine-3-carboxamido)-4-(3-(5-(6-(1H-imidazol-1-yl)pyridazine-3-carboxamido)-4-(ethoxycarbonyl)-2-fluorophenyl)propyl)-5-fluorobenzoic acid]
> 5000	100 to 1000	COc1cc(NC(=O)c2ccc3nnnn3n2)c(C(=O)O)cc1OCCc1cc(NC(=O)c2ccc(-n3ccnc3)nn2)c(C(=O)O)cc1F [Compound 147]
50 to 500	10 to 100	O=C(Nc1cc(CCOc2cc(NC(=O)c3ccc(-n4ccnc4)nn3)c(C(=O)O)cc2F)c(F)cc1C(=O)O)c1ccc(-n2ccnc2)nn1 [Compound 119]
> 5000	100 to 1000	O=C(Nc1cc(OCCCCOc2cc(NC(=O)c3ccc(-n4ccnc4)nn3)c(C(=O)O)cc2F)c(F)cc1C(=O)O)c1ccc(O)nn1 [Compound 18]
500 to 5000	< 10	CN(Cc1cc(NC(=O)c2ccc(-n3ccnc3)nn2)c(C(=O)O)cc1F)Cc1cc(NC(=O)c2ccc(-n3ccnc3)nn2)c(C(=O)O)cc1F [Compound 8, 4,4′-((methylazanediyl)bis(methylene))bis(2-(6-(1H-imidazol-1-yl)pyridazine-3-carboxamido)-5-fluorobenzoic acid)]

EC50 (THP-1 Lucia ISG cells) [nM]	IC50 (human STING protein) [nM]	Structure (SMILES)
> 5000	100 to 1000	O=C(Nc1cc(CCCc2cnc(C(=O)O)c(NC(=O)c3ccc(-n4ccnc4)nn3)c2)c(F)cc1C(=O)O)c1ccc2nnnn2n1 [Compound 82]
< 50	100 to 1000	COC(=O)c1cc(F)c(CCOc2cc(NC(=O)c3ccc(-n4ccnc4)nn3)c(C(=O)O)cc2F)cc1NC(=O)c1ccc(-n2ccnc2)nn1 [Compound 140]
500 to 5000	10 to 100	O=C(Nc1cc(CCCc2cnc(C(=O)O)c(NC(=O)c3ccc(-n4ccnc4)nn3)c2)c(F)cc1C(=O)O)c1ccc(-n2ccnc2)nn1 [Compound 65]
50 to 500	10 to 100	COC(=O)c1cc(F)c(CCCc2cc(NC(=O)c3ccc4nnnn4n3)c(C(=O)O)cc2F)cc1NC(=O)c1ccc(-n2ccnc2)nn1 [Compound 76]
> 5000	100 to 1000	O=C(Nc1cc(OCCc2cc(C(=O)O)c(NC(=O)c3ccc4nnnn4n3)cc2F)c(F)cc1C(=O)O)c1ccc2nnnn2n1 [Compound 176]
> 5000	10 to 100	O=C(Nc1cc(CS(=O)(=O)Cc2cc(NC(=O)c3ccc(-n4ccnc4)nn3)c(C(=O)O)cc2F)c(F)cc1C(=O)O)c1ccc(-n2ccnc2)nn1 [Compound 143]
50 to 500	10 to 100	Nc1cc(C(=O)Nc2cc(OCCc3cc(NC(=O)c4ccc(-n5ccnc5)nn4)c(C(=O)O)cc3F)c(F)cc2C(=O)O)nn2nnnc12 [Compound 137]
500 to 5000	10 to 100	O=C(Nc1cc(CCCc2ccc(C(=O)O)c(NC(=O)c3ccc4nnnn4n3)c2)c(Cl)cc1C(=O)O)c1ccc(-n2ccnc2)nn1 [Compound 105]
> 5000	10 to 100	O=C(Nc1ccc(CCCc2cc(NC(=O)c3ccc(-n4ccnc4)nn3)c(C(=O)O)cc2F)cc1C(=O)O)c1ccc(-n2ccnc2)nn1 [Compound 71]
> 5000	100 to 1000	COc1cc(C(=O)O)c(NC(=O)c2ccc(-n3ccnc3)nn2)cc1OCCc1cc(NC(=O)c2ccc3nnnn3n2)c(C(=O)O)cc1F [Compound 110]
< 50	10 to 100	O=C(Nc1cc(CCOc2cc(NC(=O)c3ccc4nnnn4n3)c(C(=O)O)cc2F)c(F)cc1C(=O)O)c1ccc(-n2ccnc2)nn1 [Compound 2, 2-(6-(1H-imidazol-1-yl)pyridazine-3-carboxamido)-4-(2-(4-carboxy-2-fluoro-5-(tetrazolo[1,5-b]pyridazine-6-carboxamido)phenoxy)ethyl)-5-fluorobenzoic acid]
500 to 5000	10 to 100	O=C(Nc1cc(OCCCOc2cc(NC(=O)c3ccc(-n4ccnc4)nn3)c(C(=O)O)cc2F)ccc1C(=O)O)c1ccc(-n2ccnc2)nn1 [Compound 203]
50 to 500	100 to 1000	O=C(Nc1cc(OCCCCOc2cc(NC(=O)c3ccc4nnnn4n3)c(C(=O)O)cc2F)c(F)cc1C(=O)O)c1ccc2nnnn2n1 [Compound 12]
50 to 500	10 to 100	O=C(Nc1cc(OCCc2cc(NC(=O)c3ccc(-n4ccnc4)nn3)c(C(=O)O)cc2Cl)c(F)cc1C(=O)O)c1ccc(-n2ccnc2)nn1 [Compound 129]
50 to 500	10 to 100	O=C(Nc1cc(OCCc2cc(NC(=O)c3ccc4nnnn4n3)c(C(=O)O)cc2F)c(F)cc1C(=O)O)c1ccc(-n2ccnc2)nn1 [Compound 116]
50 to 500	10 to 100	O=C(Nc1cc(OCCc2cc(NC(=O)c3ccc(-n4ccnc4)nn3)c(C(=O)O)nc2Cl)c(F)cc1C(=O)O)c1ccc(-n2ccnc2)nn1 [Compound 181]
